Patent publication US20230145868A1, “UREA INHIBITORS OF MICRO-RNA” (Board of Regents, The University of Texas System, priority 2020, published 2023)

Experiments:
U251 brain cancer line = assay: Clonogenic assay; format: cell-based, human; settings: dose-dependent, 1 μM up to 5 μM, two weeks
Protocol: In vitro clonogenic assays were conducted with adherent lines seeded in 12-well plates, treated for two weeks, and stained with crystal violet.

[1] = Microsomal stability assay, mouse; format: in vitro ADME; settings: 1 μM test compound, unit printed in b356 only
Protocol: The liver microsomal incubation mixture was composed of liver microsomes (with a concentration of 0.5 mg microsomal protein/ml), the test compound (1 μM), MgCl2 (3 mM), EDTA (1 mM) in potassium phosphate buffer (100 mM, pH 7.4). Control substrates used were Midazolam and Ketanserin. The reaction was initiated with the addition of an NADPH regeneration solution (1.3 mM NADPH) and maintained at 37° C. with shaking. At five sequential time points ranging from 0 to 45 min, aliquots of the mixture (50 μL) were removed and quenched with acetonitrile (100 μL) containing an internal standard control (imipramine) Samples were analyzed after vortexing and centrifugation by liquid chromatography-mass spectrometry (LC-MS/MS). The in vitro t1/2 was then calculated and clearance followed literature.

[2] = tested on: proteins on the PI3K/AKT pathway; assay: Reverse phase protein array (RPPA), PI3K/AKT pathway; format: cell-based, human; settings: U251; 10 μM (FIG. 23); p<0.01
Protocol: Proteomics analysis was conducted at the Reverse Phase Protein Array Core facility at MD Anderson Cancer Center. Briefly, controls and treated samples were analyzed in triplicate for 486 unique antibodies. The outputs were then normalized for protein loading and transformed to the linear value, and the normalized data was logy transformed (log2(x+1)) and sorted by FDR-adjusted p-values with a significance level of p<0.05. Differentially expressed proteins between groups were identified using the moderated t-test from LIMMA package. […] Analyses and graphical representations were carried out in R. When preparing the data for analysis, the loge fold change was calculated and adjusted p-value was used for analysis. Gene symbols were converted using the DAVID bioinformatics resource and the clusterProfiler data visualization and analysis package was used for pathway enrichment analysis. For pathway analysis, the Hallmark gene set and Gene Ontology was used for gene set and pathway enrichment.

[3] = mouse, liver microsomes, pH 7.4, mouse liver microsomes

- CLint ([1]; mouse liver microsomes): 58.9 mL/min/kg
- Half-life ([1]; mouse liver microsomes): 1.55 h
- CLint scaled at 1 μM [1, 3]: 58 mL/min/kg
- half-life at 1 μM [1, 3]: 1.53 h
SMILES: Cc1ccc(F)c(NC(=O)Nc2ccc(-c3cccc4cn[nH]c34)cc2)c1 [Example 4, 1-(4-(1H-indazol-7-yl)phenyl)-3-(2-fluoro-5-methylphenyl)urea]
- formation of colonies (U251 brain cancer line): suppressed the formation of colonies
- expression of proteins on the PI3K/AKT pathway (RPPA) [2]: ten of the twelve proteins showing significant downregulation
